Experimental data published in US20240228950A1, “MICROPATTERNED 3D HYDROGEL MICROARRAY IN FLUIDIC CHANNELS FOR SPHEROID-IN-GEL CULTURE” (NANYANG TECHNOLOGICAL UNIVERSITY, priority 2021, published 2024).

What was measured:
Format in all cases: cell-based, human
[1] = system: MCF-7 spheroids; experiment: Live/dead assay (Calcein-AM/PI) of spheroids-in-gel after drug treatment; details: 3 days treatment
Procedure: For spheroid-in-gel culture on the microarray chip, the PDMS surface was made hydrophilic by a 1-min plasma treatment using a plasma cleaner (PDC-002, Harrick Plasma Inc, Ithaca, NY, USA) to ensure even spreading of hydrogel onto the surface of the island. MCF-7 cells were dissociated and resuspended to a concentration of 1.7 million per mL. Collagen I was added to the suspension at 20 g/mL to enhance spheroid formation. MCF-7 suspension was loaded onto each island (3 L per island), following which the PDMS chip was inverted on top of a water reservoir for a hanging drop culture. […] The chip was maintained 37 °C for 2 days to allow for spheroid formation. […] Upon spheroid formation, the chip was subjected to media evaporation in the 37° C. incubator, following which collagen I (3 mg/mL) or Matrigel (4 mg/mL, Corning. NY, USA) was loaded onto each island (2 L per island) for in-place encapsulation of the spheroid. The chip was incubated at 37° C. for 30 min to allow for gelation of collagen and Matrigel, following which DMEM with 10% FBS was added into the fluidic channel. For co-culture with HUVEC, the channel was coated with polydopamine (1 mg/mL) for 30 min at 37° ° C. to facilitate HUVEC adhesion and growth. The polydopamine solution was prepared by dissolving dopamine hydrochloride (Sigma Aldrich, St. Louis, MO, USA) in Tris-HCl buffer, pH 8.5. The channel was washed with 1× Phosphate Buffer Saline (PBS) three times, following which a suspension of HUVEC (1.5 million/mL) was loaded into the channel and allowed to grow for 2 days to reach confluency. The HUVEC were cultivated under static conditions. […] The cells/spheroids were then imaged using a fluorescence microscope (Nikon Eclipse Ti, Melville, NY, USA). […] Fluorescence intensity of Calcein-AM and PI was analyzed using ImageJ and calculated according to equation (1) below. […] Spheroid area is determined by Hoechst staining. […] The same set of imaging parameters including exposure time and focal plane was used when acquiring the images to minimize inaccuracies in the fluorescence intensity.

[2] = system: HUVEC; experiment: Live/dead assay (Calcein-AM/PI) of endothelial cells co-cultured with spheroids after drug treatment; details: spheroid co-cultured with HUVEC, 3 days treatment
Procedure: The chip was incubated at 37° C. for 30 min to allow for gelation of collagen and Matrigel, following which DMEM with 10% FBS was added into the fluidic channel. For co-culture with HUVEC, the channel was coated with polydopamine (1 mg/mL) for 30 min at 37° ° C. to facilitate HUVEC adhesion and growth. The polydopamine solution was prepared by dissolving dopamine hydrochloride (Sigma Aldrich, St. Louis, MO, USA) in Tris-HCl buffer, pH 8.5. The channel was washed with 1× Phosphate Buffer Saline (PBS) three times, following which a suspension of HUVEC (1.5 million/mL) was loaded into the channel and allowed to grow for 2 days to reach confluency. The HUVEC were cultivated under static conditions.
Following that, the cells were stained with VE-Cadherin rabbit anti-human CD144 primary antibody (10 μg/mL, Enzo, Farmingdale, NY, USA) overnight at 4° C. On the next day, the cells were rinsed with 0.1% BSA in PBS three times, and fluorescently labeled with AlexaFluor 488 goat anti-rabbit secondary antibody (20 μg/mL, Life Technologies, Carlsbad, CA, USA) for 4 hr at room temperature. […]
The cells/spheroids were then imaged using a fluorescence microscope (Nikon Eclipse Ti, Melville, NY, USA). […] Fluorescence intensity of Calcein-AM and PI was analyzed using ImageJ and calculated according to equation (1) below.

[3] = system: HUVEC endothelial barrier; experiment: Endothelial barrier integrity study (FITC-dextran 70 kDa diffusion into hydrogel island); details: HUVEC treated with 100 and 500 nM for 3 days; 60 min dextran incubation
Procedure: To assess the endothelial barrier integrity after drug treatment in the spheroid-in-gel chip, Collagen I (3 mg/mL) and HUVEC were seeded into the chip as described in example 2C. Sub-confluent HUVEC were treated with Paclitaxel (100 and 500 nM) and cultured for 3 days prior to the barrier permeability test. Fluorescence images were taken before and after 1 hr incubation with 10 μg/mL 70 kDa dextran conjugated with fluorescein isothiocyanate (FITC, Sigma Aldrich, St. Louis, MO, USA) loaded in the fluidic channels. Fluorescence intensities within the hydrogel island were expressed as the fold change (time 60 min over 0 min) and normalized to the untreated control.

What does the source list for CC(=O)O[C@H]1C(=O)[C@@]2(C)[C@H]([C@H](OC(=O)c3ccccc3)[C@]3(O)C[C@H](OC(=O)[C@H](O)[C@@H](NC(=O)c4ccccc4)c4ccccc4)C(C)=C1C3(C)C)[C@]1(OC(C)=O)CO[C@@H]1C[C@@H]2O [Paclitaxel]?
MCF-7 death by live/dead staining (Calcein-AM/PI) ([1]; mono-cultured spheroids, PTX 1, 100, 500 nM): higher MCF-7 death with increasing drug concentration; PI intensity of drug-treated spheroids, mono-culture versus co-culture ([1]; with or without HUVEC co-culture, PTX 1, 100, 500 nM): negligible differences in PI intensity; Spheroid Calcein-AM intensity (survival), co-culture versus mono-culture ([1]; with or without HUVEC co-culture, normalized to untreated group): trend of better survival of spheroids in co-cultures as compared to mono-culture, although no significant difference was observed; EC death by live/dead staining (Calcein-AM/PI) [2]: higher EC death; Endothelial barrier integrity based on diffusion of FITC-Dextran 70 kDa into the hydrogel islands [3]: impaired the endothelial barrier integrity
